# Data as given in patent publication US20230172207A1 (BASF SE, priority 2020, published 2023).
# Tests used:
# Alternaria solani (wt) = test: microbe, parasite or virus in culture; type: cell-based; conditions: Alternaria solani, 168 h, read-out: Fungal growth (%) ALTESO wt
# Leptosphaeria nodorum = test: Micro titer plate test against Leptosphaeria nodorum causing wheat leaf spots (LEPTNO); type: cell-based; conditions: Parastagonospora nodorum, 168 h; 0.063 ppm, relative growth vs compound-free control (100%), 7 days; read-out: Fungal growth (%) LEPTNO
# Cercospora sojina = test: microbe, parasite or virus in culture; type: cell-based; conditions: 168 h, read-out: Fungal growth (%) CERCSO
# [1] = system: Alternaria solani (F129L); test: Micro titer plate test against Alternaria solani causing early blight (ALTESO F129L); type: cell-based; conditions: Alternaria solani, 168 h; 0.016 ppm, relative growth vs compound-free control (100%), 7 days; read-out: Fungal growth (%) ALTESO F129L
# Pyrenophora teres (wt) = test: Micro titer plate test against Pyrenophora teres causing net blotch on barley (PYRNTE wt); type: cell-based; conditions: Pyrenophora teres, 168 h; 0.25 ppm, relative growth vs compound-free control (100%), 7 days; read-out: Fungal growth (%) PYRNTE wt
# Septoria tritici = test: Micro titer plate test against Septoria tritici causing leaf blotch on wheat (SEPTTR); type: cell-based; conditions: 0.25 ppm
# [2] = system: Phakopsora pachyrhizi (F129L); test: Protective control of soybean rust on soybeans (PHAKPA P2); type: in vivo; conditions: protective P2, 4 ppm
# [3] = system: Phakopsora pachyrhizi (F129L); test: Protective control of soybean rust on soybeans (PHAKPA P6); type: in vivo; conditions: for % PHAKPA (F129L) Disease level, P6 at 16 ppm: protective P6, 16 ppm
# Pyricularia oryzae = test: microbe, parasite or virus in culture; type: cell-based; conditions: Pyricularia oryzae, 168 h, read-out: Fungal growth (%) PYRIOR
Compound,"% PHAKPA (F129L) Disease level, P2 at 4 ppm [2]","% PHAKPA (F129L) Disease level, P6 at 16 ppm [3]",other results
"CO/N=C(/C(=O)OC)c1cccc(C)c1CO/N=C(\C)c1cccc(C)c1 [drawing 956, reference compound]",–,–,activity at 0.016 ppm (Alternaria solani (wt)): 93%; activity at 0.063 ppm (Leptosphaeria nodorum): 65%; activity at 4 ppm (Cercospora sojina): 67%; activity at 0.016 ppm [1]: 81%; activity at 0.25 ppm (Pyrenophora teres (wt)): 53%
CNC(=O)/C(=N/OC)c1cccc(C)c1CO/N=C(\OC)c1cccc(C)c1 [drawing 959],–,–,Fungal growth (%) SEPTTR (Septoria tritici): 100%
CNC(=O)/C(=N/OC)c1cccc(C)c1CO/N=C(/c1cccc(C)c1)C1CC1 [drawing 960],–,–,Fungal growth (%) SEPTTR (Septoria tritici): 87%
CO/N=C(/C(=O)OC)c1cccc(C)c1CO/N=C(\SC)c1cccc(Cl)c1 [drawing 962],–,–,Fungal growth (%) SEPTTR (Septoria tritici): 39%
CO/N=C(/C(=O)OC)c1cccc(C)c1CO/N=C(/c1cccc(Cl)c1)C1CC1 [drawing 963],–,–,Fungal growth (%) SEPTTR (Septoria tritici): 39%
CNC(=O)/C(=N/OC)c1cccc(C)c1CO/N=C(\SC)c1cccc(Cl)c1 [drawing 968],–,–,Fungal growth (%) SEPTTR (Septoria tritici): 59%
"CO/N=C(/C(=O)OC)c1cccc(C)c1CO/N=C(/c1cccc(C)c1)C1CC1 [drawing 973, reference compound]",80%,37%,–
"CO/N=C(/C(=O)OC)c1cccc(C)c1CO/N=C(\SC)c1cccc(C)c1 [drawing 974, reference compound]",60%,30%,–
"CNC(=O)/C(=N/OC)c1cccc(C)c1CO/N=C(\OC)c1cccc(C)c1 [drawing 976, reference compound]",–,45%,–
"CNC(=O)/C(=N/OC)c1cccc(C)c1CO/N=C(/c1cccc(C)c1)C1CC1 [drawing 977, reference compound]",67%,67%,–
"CNC(=O)/C(=N/OC)c1cccc(C)c1CO/N=C(\SC)c1cccc(Cl)c1 [drawing 981, reference compound]",20%,9%,–
"CO/N=C(/C(=O)OC)c1cccc(C)c1CO/N=C(/c1cccc(Cl)c1)C1CC1 [drawing 983, reference compound]",83%,87%,–
"CO/N=C(/C(=O)OC)c1cccc(C)c1CO/N=C(\SC)c1cccc(Cl)c1 [drawing 984, reference compound]",47%,18%,–
CO/N=C(/C(=O)OC)c1cccc(C)c1CO/N=C(\OC)c1cccc(OC(F)(F)F)c1 [reference compound],–,–,activity at 0.016 ppm (Pyricularia oryzae): 58%; activity at 0.063 ppm (Leptosphaeria nodorum): 100%; activity at 4 ppm (Cercospora sojina): 56%
CO/N=C(/C(=O)OC)c1cccc(C)c1CO/N=C(\OC)c1cccc(C)c1 [reference compound],83%,57%,–
CO/N=C(/C(=O)OC)c1cccc(C)c1CO/N=C(\OC)c1cccc(C(F)(F)F)c1 [reference compound],–,23%,–
CNC(=O)/C(=N/OC)c1cccc(C)c1CO/N=C(\SC)c1cccc(C(F)(F)F)c1 [reference compound],–,–,"% PHAKPA (F129L) Disease level, P6 at 4 ppm ([3]; protective P6, 4 ppm): 43%"
